Laboratory results from ChEMBL document CHEMBL5465560, “Selectivity Literature for EUbOPEN Chemogenomic Library” (2024).
Blank lines part the entries; values can stand above or below the compound they belong to.

How the values were obtained:
[1] = molecular target: T1, Serine/threonine-protein kinase TNNI3K (Homo sapiens) (UniProt Q59H18); test: Selectivity interaction (KinomeScan (DiscoverX)) EUB0001049a TNNI3K; conditions: at 1 µM
T1 sequence (whole entry): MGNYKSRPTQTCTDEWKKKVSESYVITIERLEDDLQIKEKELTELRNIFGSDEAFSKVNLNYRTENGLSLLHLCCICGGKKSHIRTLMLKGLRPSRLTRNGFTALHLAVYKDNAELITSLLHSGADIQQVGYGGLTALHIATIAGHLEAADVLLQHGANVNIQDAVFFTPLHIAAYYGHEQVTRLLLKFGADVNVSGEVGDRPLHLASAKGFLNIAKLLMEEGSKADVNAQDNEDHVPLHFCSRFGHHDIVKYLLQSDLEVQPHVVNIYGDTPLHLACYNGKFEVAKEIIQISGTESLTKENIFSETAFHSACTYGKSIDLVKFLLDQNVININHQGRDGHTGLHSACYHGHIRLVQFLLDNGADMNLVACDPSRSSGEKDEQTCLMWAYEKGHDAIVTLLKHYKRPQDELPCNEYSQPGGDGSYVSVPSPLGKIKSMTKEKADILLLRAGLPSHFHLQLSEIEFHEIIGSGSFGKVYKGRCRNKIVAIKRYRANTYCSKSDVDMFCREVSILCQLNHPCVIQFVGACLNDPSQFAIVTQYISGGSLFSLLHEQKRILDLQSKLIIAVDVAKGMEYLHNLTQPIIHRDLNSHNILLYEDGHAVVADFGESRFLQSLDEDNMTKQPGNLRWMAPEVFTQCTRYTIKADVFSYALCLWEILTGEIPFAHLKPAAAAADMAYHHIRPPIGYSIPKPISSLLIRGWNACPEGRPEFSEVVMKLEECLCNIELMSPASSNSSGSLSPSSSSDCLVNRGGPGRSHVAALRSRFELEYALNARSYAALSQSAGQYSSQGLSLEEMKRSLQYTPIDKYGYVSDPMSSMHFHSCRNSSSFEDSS

[2] = molecular target: Serine/threonine-protein kinase MARK2 (Homo sapiens) (UniProt Q7KZI7); test: Selectivity interaction (ActivX KiNativ screen (kinase selectivity in THP-1 cell lysates)) EUB0000639a MARK2; format: subcellular; conditions: lysate
Serine/threonine-protein kinase MARK2 (Homo sapiens), sequence (Q7KZI7 whole entry): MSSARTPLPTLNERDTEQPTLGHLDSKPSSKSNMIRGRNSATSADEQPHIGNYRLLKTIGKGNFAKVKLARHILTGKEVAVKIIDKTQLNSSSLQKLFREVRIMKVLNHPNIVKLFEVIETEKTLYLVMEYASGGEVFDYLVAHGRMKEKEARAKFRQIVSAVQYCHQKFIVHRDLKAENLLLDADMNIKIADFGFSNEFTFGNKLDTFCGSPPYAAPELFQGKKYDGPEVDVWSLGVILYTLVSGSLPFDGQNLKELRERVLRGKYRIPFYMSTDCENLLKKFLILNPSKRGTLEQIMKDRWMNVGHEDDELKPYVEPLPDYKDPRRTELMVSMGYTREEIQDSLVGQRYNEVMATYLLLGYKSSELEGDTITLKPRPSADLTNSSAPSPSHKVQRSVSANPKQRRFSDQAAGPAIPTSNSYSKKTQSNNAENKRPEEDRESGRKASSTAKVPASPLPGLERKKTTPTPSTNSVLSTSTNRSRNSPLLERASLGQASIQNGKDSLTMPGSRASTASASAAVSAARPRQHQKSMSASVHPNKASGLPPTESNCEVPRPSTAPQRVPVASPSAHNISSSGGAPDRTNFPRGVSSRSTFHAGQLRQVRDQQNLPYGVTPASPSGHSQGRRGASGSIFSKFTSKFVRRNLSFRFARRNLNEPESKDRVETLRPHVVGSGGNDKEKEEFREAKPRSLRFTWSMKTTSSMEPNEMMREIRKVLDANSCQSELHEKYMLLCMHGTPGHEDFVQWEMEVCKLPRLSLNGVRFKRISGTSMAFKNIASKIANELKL

[3] = tested on: Tyrosine-protein kinase ABL1 (Homo sapiens), P00519 [Y253F]; conditions: at 10 µM
[4] = molecular target: Mitogen-activated protein kinase 4 (Homo sapiens) (UniProt P31152); test: Selectivity interaction (KinomeScan (DiscoverX)) EUB0000595a MAPK4; conditions: at 10 µM
Mitogen-activated protein kinase 4 (Homo sapiens), sequence (P31152 whole entry): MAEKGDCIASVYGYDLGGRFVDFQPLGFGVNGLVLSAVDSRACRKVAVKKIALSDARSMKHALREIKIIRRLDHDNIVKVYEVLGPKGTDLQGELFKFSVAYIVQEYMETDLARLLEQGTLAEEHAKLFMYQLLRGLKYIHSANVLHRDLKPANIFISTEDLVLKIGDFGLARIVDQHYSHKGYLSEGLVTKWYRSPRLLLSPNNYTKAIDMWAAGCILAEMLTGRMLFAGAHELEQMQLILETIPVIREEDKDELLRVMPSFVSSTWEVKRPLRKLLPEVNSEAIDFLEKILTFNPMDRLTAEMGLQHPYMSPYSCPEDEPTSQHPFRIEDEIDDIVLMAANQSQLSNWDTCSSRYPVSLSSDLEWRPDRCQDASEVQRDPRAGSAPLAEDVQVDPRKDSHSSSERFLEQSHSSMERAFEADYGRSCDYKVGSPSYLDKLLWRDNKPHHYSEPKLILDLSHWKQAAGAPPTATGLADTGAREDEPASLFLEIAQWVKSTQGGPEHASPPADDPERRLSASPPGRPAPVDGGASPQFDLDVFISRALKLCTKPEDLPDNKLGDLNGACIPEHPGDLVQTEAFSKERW

[5] = molecular target: Mitogen-activated protein kinase kinase kinase 11 (Homo sapiens) (UniProt Q16584); test: Selectivity interaction (Kinase panel (Eurofins)) EUB0001564a MAP3K11; conditions: at 1 µM
Mitogen-activated protein kinase kinase kinase 11 (Homo sapiens), sequence (Q16584 whole entry, looked up): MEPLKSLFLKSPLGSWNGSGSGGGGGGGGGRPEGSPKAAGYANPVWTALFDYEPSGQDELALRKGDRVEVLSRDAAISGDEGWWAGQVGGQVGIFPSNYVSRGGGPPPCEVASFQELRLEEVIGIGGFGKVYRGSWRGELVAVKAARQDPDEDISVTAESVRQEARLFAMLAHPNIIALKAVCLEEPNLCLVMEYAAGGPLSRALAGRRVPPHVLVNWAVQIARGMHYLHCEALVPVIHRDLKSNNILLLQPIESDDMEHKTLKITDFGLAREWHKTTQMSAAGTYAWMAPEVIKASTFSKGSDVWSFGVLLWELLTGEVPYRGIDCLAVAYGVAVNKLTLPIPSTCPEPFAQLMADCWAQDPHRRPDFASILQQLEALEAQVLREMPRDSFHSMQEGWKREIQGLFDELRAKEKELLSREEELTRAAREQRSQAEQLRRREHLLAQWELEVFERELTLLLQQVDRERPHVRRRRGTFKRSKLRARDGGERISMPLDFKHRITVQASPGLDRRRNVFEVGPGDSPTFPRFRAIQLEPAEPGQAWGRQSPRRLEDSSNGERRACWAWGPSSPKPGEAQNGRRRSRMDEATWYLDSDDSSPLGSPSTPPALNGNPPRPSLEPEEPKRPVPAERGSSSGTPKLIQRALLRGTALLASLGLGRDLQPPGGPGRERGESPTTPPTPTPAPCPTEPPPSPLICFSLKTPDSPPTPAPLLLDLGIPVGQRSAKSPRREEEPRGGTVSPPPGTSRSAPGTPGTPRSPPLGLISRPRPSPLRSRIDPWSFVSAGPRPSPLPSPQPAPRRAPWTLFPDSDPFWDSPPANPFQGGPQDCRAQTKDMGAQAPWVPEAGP

[6] = molecular target: Tyrosine-protein kinase Fes/Fps (Homo sapiens) (UniProt P07332); test: Selectivity interaction (KinomeScan (DiscoverX)) EUB0000045b FES
Tyrosine-protein kinase Fes/Fps (Homo sapiens), sequence (P07332 whole entry): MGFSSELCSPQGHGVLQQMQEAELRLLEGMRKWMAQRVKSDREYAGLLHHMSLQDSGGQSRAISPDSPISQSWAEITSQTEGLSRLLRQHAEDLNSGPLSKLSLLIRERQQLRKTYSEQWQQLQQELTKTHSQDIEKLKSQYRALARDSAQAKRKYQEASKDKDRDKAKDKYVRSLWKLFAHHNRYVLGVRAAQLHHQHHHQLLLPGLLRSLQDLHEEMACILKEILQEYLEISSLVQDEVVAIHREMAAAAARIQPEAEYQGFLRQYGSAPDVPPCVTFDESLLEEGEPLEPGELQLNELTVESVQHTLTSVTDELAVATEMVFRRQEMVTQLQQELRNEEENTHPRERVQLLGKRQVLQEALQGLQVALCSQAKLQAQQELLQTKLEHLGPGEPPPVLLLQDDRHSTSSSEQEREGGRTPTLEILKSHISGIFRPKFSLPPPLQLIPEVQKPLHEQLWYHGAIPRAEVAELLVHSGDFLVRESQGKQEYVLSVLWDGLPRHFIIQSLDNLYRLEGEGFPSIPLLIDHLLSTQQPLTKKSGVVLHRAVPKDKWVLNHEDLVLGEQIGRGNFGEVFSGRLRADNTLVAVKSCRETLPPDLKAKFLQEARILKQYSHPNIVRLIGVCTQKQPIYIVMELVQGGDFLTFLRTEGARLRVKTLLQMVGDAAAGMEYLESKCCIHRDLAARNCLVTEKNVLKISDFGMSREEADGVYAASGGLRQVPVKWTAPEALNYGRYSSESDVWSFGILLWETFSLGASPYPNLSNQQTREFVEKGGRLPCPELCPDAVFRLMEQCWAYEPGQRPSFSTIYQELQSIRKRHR

[7] = molecular target: T2, Tyrosine-protein kinase TXK (Homo sapiens) (UniProt P42681); test: Selectivity interaction (KinomeScan (DiscoverX)) EUB0000655a TXK; conditions: at 10 µM
T2 sequence (whole entry): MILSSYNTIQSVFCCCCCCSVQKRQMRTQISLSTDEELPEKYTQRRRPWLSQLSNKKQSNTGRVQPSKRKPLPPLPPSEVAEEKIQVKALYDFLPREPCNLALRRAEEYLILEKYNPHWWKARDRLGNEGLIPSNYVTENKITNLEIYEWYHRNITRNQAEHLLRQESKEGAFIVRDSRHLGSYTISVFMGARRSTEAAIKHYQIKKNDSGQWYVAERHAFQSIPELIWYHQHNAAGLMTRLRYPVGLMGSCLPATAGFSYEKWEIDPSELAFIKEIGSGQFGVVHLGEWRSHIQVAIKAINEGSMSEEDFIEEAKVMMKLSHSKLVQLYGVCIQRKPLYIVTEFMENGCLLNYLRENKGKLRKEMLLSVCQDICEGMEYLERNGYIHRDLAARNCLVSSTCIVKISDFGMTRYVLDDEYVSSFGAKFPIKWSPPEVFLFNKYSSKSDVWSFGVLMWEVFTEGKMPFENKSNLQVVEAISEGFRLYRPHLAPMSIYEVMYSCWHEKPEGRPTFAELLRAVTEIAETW

[8] = molecular target: Dual specificity mitogen-activated protein kinase kinase 1 (Homo sapiens, UniProt Q02750); test: Selectivity interaction (ActivX KiNativ screen (ex vivo kinase selectivity in human PBMCs)) EUB0001619a MAP2K1; format: cell-based; conditions: PBMC, at 1 µM
Dual specificity mitogen-activated protein kinase kinase 1, sequence (Q02750 whole entry): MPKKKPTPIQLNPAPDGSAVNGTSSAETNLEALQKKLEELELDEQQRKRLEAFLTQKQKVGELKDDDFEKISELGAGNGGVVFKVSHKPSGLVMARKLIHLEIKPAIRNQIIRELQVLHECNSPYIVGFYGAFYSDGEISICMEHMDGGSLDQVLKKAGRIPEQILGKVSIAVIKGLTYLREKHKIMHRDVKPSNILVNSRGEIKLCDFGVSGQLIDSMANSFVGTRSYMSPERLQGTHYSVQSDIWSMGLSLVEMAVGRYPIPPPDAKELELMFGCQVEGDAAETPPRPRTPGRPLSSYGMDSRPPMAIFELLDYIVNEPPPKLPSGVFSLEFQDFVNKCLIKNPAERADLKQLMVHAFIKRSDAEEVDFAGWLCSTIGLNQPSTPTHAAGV

[9] = molecular target: Eukaryotic translation initiation factor 2-alpha kinase 1 (Homo sapiens) (UniProt Q9BQI3); test: Selectivity interaction (KinomeScan (DiscoverX)) EUB0000618a EIF2AK1; conditions: at 10 µM
Eukaryotic translation initiation factor 2-alpha kinase 1 (Homo sapiens), sequence (Q9BQI3 whole entry): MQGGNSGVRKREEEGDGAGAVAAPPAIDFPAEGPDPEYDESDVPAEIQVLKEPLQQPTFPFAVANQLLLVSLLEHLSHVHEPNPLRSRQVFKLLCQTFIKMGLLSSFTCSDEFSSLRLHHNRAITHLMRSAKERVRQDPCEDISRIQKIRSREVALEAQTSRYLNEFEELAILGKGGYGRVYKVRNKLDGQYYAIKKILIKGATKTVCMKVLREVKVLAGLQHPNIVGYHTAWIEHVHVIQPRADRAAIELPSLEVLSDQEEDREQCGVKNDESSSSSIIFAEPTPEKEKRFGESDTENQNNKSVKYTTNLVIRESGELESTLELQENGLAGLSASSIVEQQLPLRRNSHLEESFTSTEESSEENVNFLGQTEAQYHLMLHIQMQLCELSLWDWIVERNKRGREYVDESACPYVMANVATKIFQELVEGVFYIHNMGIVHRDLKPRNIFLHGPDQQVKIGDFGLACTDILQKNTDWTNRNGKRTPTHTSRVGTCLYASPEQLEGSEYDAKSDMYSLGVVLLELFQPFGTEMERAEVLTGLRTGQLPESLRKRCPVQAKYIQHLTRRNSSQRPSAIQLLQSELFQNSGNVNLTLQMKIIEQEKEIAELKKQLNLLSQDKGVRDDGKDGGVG

[10] = molecular target: Serine/threonine-protein kinase mTOR (Homo sapiens, UniProt P42345); test: Selectivity interaction (KinomeScan (DiscoverX)) EUB0000618a MTOR; conditions: at 10 µM
[11] = molecular target: Serine/threonine-protein kinase OSR1 (Homo sapiens) (UniProt O95747); test: Selectivity interaction (Kinase panel (DSF assay)) EUB0001559a OXSR1
Serine/threonine-protein kinase OSR1 (Homo sapiens), sequence (O95747 2-527 limits assumed): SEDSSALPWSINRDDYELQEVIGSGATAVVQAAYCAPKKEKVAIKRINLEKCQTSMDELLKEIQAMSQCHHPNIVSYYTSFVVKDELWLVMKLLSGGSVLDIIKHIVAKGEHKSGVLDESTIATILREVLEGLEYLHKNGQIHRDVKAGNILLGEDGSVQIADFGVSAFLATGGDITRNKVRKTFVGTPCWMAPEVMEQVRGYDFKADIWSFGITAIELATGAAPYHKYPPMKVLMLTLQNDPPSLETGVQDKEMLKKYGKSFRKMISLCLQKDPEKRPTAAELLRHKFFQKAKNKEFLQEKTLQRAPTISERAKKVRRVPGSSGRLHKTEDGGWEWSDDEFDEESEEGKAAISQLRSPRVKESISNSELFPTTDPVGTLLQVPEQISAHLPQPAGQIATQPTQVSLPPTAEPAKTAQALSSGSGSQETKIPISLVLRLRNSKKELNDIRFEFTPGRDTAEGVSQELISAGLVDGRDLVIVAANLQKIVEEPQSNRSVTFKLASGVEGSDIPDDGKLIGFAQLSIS

SMILES: COc1cc(Nc2nc(C)cc(-c3cnn4nc(OC)ccc34)n2)cc(C(F)(F)F)c1
% of control [1]: 100%

% of inhibition ([2]; at 0.01 µM): -8%
% of inhibition ([2]; at 0.04 µM): 6.9%
% of inhibition ([2]; at 0.2 µM): 9.9%
% of inhibition ([2]; at 1 µM): 30%
% of inhibition ([2]; at 5 µM): 56.3%
SMILES: CC[C@@H]1[C@H](F)C(=O)N[C@@H]1COc1nccc2cc(C(N)=O)c(OC)cc12 [ZIMLOVISERTIB]

% of control [3]: 100%
SMILES: CCN(CC)CCCCNc1ncc2cc(-c3cc(OC)cc(OC)c3)c(NC(=O)NC(C)(C)C)nc2n1

SMILES: COCC(=O)NC/C=C/c1ccc2ncnc(Nc3ccc(Oc4ccc(C)nc4)c(C)c3)c2c1 [CP-724714]
% of control [4]: 100%

% of inhibition [5]: 21.1%
SMILES: CC[C@@H](Nc1c(C#N)c(-c2ccc(-c3cccc(C)c3F)cc2)nc2cnccc12)C(=O)O [BAY-091]

SMILES: C=CC(=O)Nc1cc(-n2c(=O)ccc3cnc4ccc(-c5ccc(NS(C)(=O)=O)cc5)cc4c32)ccc1C
% of control ([6]; at 1 µM): 92%
% of control ([6]; at 10 µM): 100%

SMILES: CN(C)CCOc1ccc(-c2nc(-c3ccncc3)c(-c3ccc4c(c3)CC/C4=N\O)[nH]2)cc1
% of control [7]: 97%

SMILES: N#Cc1cccc(-c2c[nH]c3ncnc(N4CCOCC4)c23)c1
% of inhibition [8]: 0%

SMILES: O[C@H]1CC[C@H](Nc2ncc3nc(Nc4c(F)cc(F)cc4F)n([C@H]4CCOC4)c3n2)CC1
% of control [9]: 100%
% of control [10]: 68%

dTM [11]: 0.3 K
SMILES: CN(C(=O)c1cnn2cccnc12)c1cc2c(cc1N1CCOCC1)C(=O)N(C[C@@H](F)C(C)(C)O)C2
